Key:
TC-1 epithelial cells = type: cell-based, murine
[1] = test system: primary nasal septal epithelial cells; type: cell-based, C57BL/6N mice
[2] = test system: Bone marrow derived dendritic cells (BMDC); type: cell-based, C57BL/6 mice
[3] = test system: B6.Cg-Tg(HLA-A/H2-D)2Enge/J mice; settings: mouse, in vivo
nasal septal tissue = test system: nasal septal tissue; parameters: species or system C57BL/6 mice; settings: mouse, in vivo
nasal epithelial cells = experiment: Detection of apoptosis (caspase-3 staining) and necrosis (morphology) in nasal epithelium; settings: 2 hours following nasal treatment, 15 μl

Row | Compound | IL-6, TGF-β and TSLP in TC-1 supernatant (TC-1 epithelial cells) | surface expression of MHC class II [1] | cytokines and chemokines in BMDC supernatant [2] | end titer of anti-HBsAg IgG [3] | secreted anti-HBsAg IgA [3] | cytokine response profile in nasal septal tissue (nasal septal tissue) | inflammation in nasal epithelium (nasal epithelial cells)
1 | cholera toxin [CT] | only IL-6 was induced | no significant difference | stimulated IL-1α, IL-1β and MIP-1α in BMDC in addition to IL-10, G-CSF, IL-10, IL-4, IL-6, IL-9, IL-12, IL-15, IL-17, TNF-α, and KC | 6.4×10^5 | equivalent local mucosal immune responses | increases in only IL-6 and IL-12 common to both NE and CT | –
2 | CCCCCCCCCCCCCCCC[n+]1ccccc1 [CPC, cetylpyridinium chloride] | – | – | – | – | – | – | neutrophilic infiltration

— patent US20130273113A1 (priority 2012, published 2013)
